Results as given in ChEMBL document CHEMBL4665869, “New thiazolopyrimidine as anticancer agents: Synthesis, biological evaluation, DNA binding, molecular modeling and ADMET study” (Bioorg Med Chem Lett, 2020).
Converted amounts (≈) assume the structure as drawn.

Experiments:
DNA = experiment: Displacement of methyl green from DNA (unknown origin) assessed as DNA intercalation after 24 hrs by colorimetric assay; assay type: nucleic-acid assay
NCI-H23 = experiment: Growth inhibition of human NCI-H23 cells at 10 uM relative to control; assay type: functional; conditions: read-out: GI
HOP-92 = experiment: Growth inhibition of human HOP-92 cells at 10 uM relative to control; assay type: functional; conditions: read-out: GI
M14 = experiment: Growth inhibition of human M14 cells at 10 uM relative to control; assay type: functional; conditions: read-out: GI
LOX IMVI = experiment: Growth inhibition of human LOX IMVI cells at 10 uM relative to control; assay type: functional; conditions: read-out: GI
KM12 = experiment: Growth inhibition of human KM12 cells at 10 uM relative to control; assay type: functional; conditions: read-out: GI
NCI-H522 = experiment: Growth inhibition of human NCI-H522 cells at 10 uM relative to control; assay type: functional; conditions: read-out: GI
NCI-H322M = experiment: Growth inhibition of human NCI-H322M cells at 10 uM relative to control; assay type: functional; conditions: read-out: GI
SNB-19 = experiment: Growth inhibition of human SNB-19 cells at 10 uM relative to control; assay type: functional; conditions: read-out: GI
MDA-MB-231 = experiment: Growth inhibition of human MDA-MB-231 cells at 10 uM relative to control; assay type: functional; conditions: read-out: GI
BT-549 = experiment: Growth inhibition of human BT-549 cells at 10 uM relative to control; assay type: functional; conditions: read-out: GI
DU-145 = experiment: Growth inhibition of human DU-145 cells at 10 uM relative to control; assay type: functional; conditions: read-out: GI
A549 = experiment: Growth inhibition of human A549 cells at 10 uM relative to control; assay type: functional; conditions: read-out: GI
CAKI-1 = experiment: Growth inhibition of human CAKI-1 cells at 10 uM relative to control; assay type: functional; conditions: read-out: GI
UACC-62 = experiment: Growth inhibition of human UACC-62 cells at 10 uM relative to control; assay type: functional; conditions: read-out: GI
NCI-H226 = experiment: Growth inhibition of human NCI-H226 cells at 10 uM relative to control; assay type: functional; conditions: read-out: GI
SK-OV-3 = experiment: Growth inhibition of human SK-OV-3 cells at 10 uM relative to control; assay type: functional; conditions: read-out: GI
SNB-75 = experiment: Growth inhibition of human SNB-75 cells at 10 uM relative to control; assay type: functional; conditions: read-out: GI
NCI-H460 = experiment: Growth inhibition of human NCI-H460 cells at 10 uM relative to control; assay type: functional; conditions: read-out: GI
NCI/ADR-RES = experiment: Growth inhibition of human NCI/ADR-RES cells at 10 uM relative to control; assay type: functional; conditions: read-out: GI
Malme-3M = experiment: Growth inhibition of human Malme-3M cells at 10 uM relative to control; assay type: functional; conditions: read-out: GI
MDA-MB-468 = experiment: Growth inhibition of human MDA-MB-468 cells at 10 uM relative to control; assay type: functional; conditions: read-out: GI
ACHN = experiment: Growth inhibition of human ACHN cells at 10 uM relative to control; assay type: functional; conditions: read-out: GI
SK-MEL-2 = experiment: Growth inhibition of human SK-MEL-2 cells at 10 uM relative to control; assay type: functional; conditions: read-out: GI
COLO 205 = experiment: Growth inhibition of human COLO 205 cells at 10 uM relative to control; assay type: functional; conditions: read-out: GI
SF-295 = experiment: Growth inhibition of human SF-295 cells at 10 uM relative to control; assay type: functional; conditions: read-out: GI
786-0 = experiment: Growth inhibition of human 786-0 cells at 10 uM relative to control; assay type: functional; conditions: read-out: GI
A498 = experiment: Growth inhibition of human A498 cells at 10 uM relative to control; assay type: functional; conditions: read-out: GI
HCT-116 = experiment: Growth inhibition of human HCT-116 cells at 10 uM relative to control; assay type: functional; conditions: read-out: GI
HCT-15 = experiment: Growth inhibition of human HCT-15 cells at 10 uM relative to control; assay type: functional; conditions: read-out: GI
U-251 = experiment: Growth inhibition of human U-251 cells at 10 uM relative to control; assay type: functional; conditions: read-out: GI
RPMI-8226 = experiment: Growth inhibition of human RPMI-8226 cells at 10 uM relative to control; assay type: functional; conditions: read-out: GI
SK-MEL-5 = experiment: Growth inhibition of human SK-MEL-5 cells at 10 uM relative to control; assay type: functional; conditions: read-out: GI
SW-620 = experiment: Growth inhibition of human SW-620 cells at 10 uM relative to control; assay type: functional; conditions: read-out: GI
RXF 393 = experiment: Growth inhibition of human RXF 393 cells at 10 uM relative to control; assay type: functional; conditions: read-out: GI
OVCAR-8 = experiment: Growth inhibition of human OVCAR-8 cells at 10 uM relative to control; assay type: functional; conditions: read-out: GI
UACC-257 = experiment: Growth inhibition of human UACC-257 cells at 10 uM relative to control; assay type: functional; conditions: read-out: GI
HOP-62 = experiment: Growth inhibition of human HOP-62 cells at 10 uM relative to control; assay type: functional; conditions: read-out: GI
CCRF-CEM = experiment: Growth inhibition of human CCRF-CEM cells at 10 uM relative to control; assay type: functional; conditions: read-out: GI
SN12C = experiment: Growth inhibition of human SN12C cells at 10 uM relative to control; assay type: functional; conditions: read-out: GI
OVCAR-4 = experiment: Growth inhibition of human OVCAR-4 cells at 10 uM relative to control; assay type: functional; conditions: read-out: GI
MCF7 = experiment: Growth inhibition of human MCF7 cells at 10 uM relative to control; assay type: functional; conditions: read-out: GI
MOLT-4 = experiment: Growth inhibition of human MOLT-4 cells at 10 uM relative to control; assay type: functional; conditions: read-out: GI
IGROV-1 = experiment: Growth inhibition of human IGROV-1 cells at 10 uM relative to control; assay type: functional; conditions: read-out: GI
K562 = experiment: Growth inhibition of human K562 cells at 10 uM relative to control; assay type: functional; conditions: read-out: GI
Hs-578T = experiment: Growth inhibition of human Hs-578T cells at 10 uM relative to control; assay type: functional; conditions: read-out: GI
TK-10 = experiment: Growth inhibition of human TK-10 cells at 10 uM relative to control; assay type: functional; conditions: read-out: GI
HT-29 = experiment: Growth inhibition of human HT-29 cells at 10 uM relative to control; assay type: functional; conditions: read-out: GI
SR = experiment: Growth inhibition of human SR cells at 10 uM relative to control; assay type: functional; conditions: read-out: GI
SK-MEL-28 = experiment: Growth inhibition of human SK-MEL-28 cells at 10 uM relative to control; assay type: functional; conditions: read-out: GI
SF-539 = experiment: Growth inhibition of human SF-539 cells at 10 uM relative to control; assay type: functional; conditions: read-out: GI
HCC 2998 = experiment: Growth inhibition of human HCC 2998 cells at 10 uM relative to control; assay type: functional; conditions: read-out: GI
HL-60(TB) = experiment: Growth inhibition of human HL-60(TB) cells at 10 uM relative to control; assay type: functional; conditions: read-out: GI
UO-31 = experiment: Growth inhibition of human UO-31 cells at 10 uM relative to control; assay type: functional; conditions: read-out: GI
SF-268 = experiment: Growth inhibition of human SF-268 cells at 10 uM relative to control; assay type: functional; conditions: read-out: GI
OVCAR-5 = experiment: Growth inhibition of human OVCAR-5 cells at 10 uM relative to control; assay type: functional; conditions: read-out: GI
MDA-MB-435 = experiment: Growth inhibition of human MDA-MB-435 cells at 10 uM relative to control; assay type: functional; conditions: read-out: GI
T47D = experiment: Growth inhibition of human T47D cells at 10 uM relative to control; assay type: functional; conditions: read-out: GI

CCOC(=O)C1=CSC2=NC(/C=C/c3ccc(OC)cc3)=CC(c3ccc(OC)cc3)N12 (centres undefined)
IC50 (DNA): 28.38 µg/mL (≈ 63.3 µM)

CCOC(=O)C1=CSC2=NC(/C=C/c3ccc(C)cc3)=CC(c3ccc(C)cc3)N12 (centres undefined)
IC50 (DNA): 31.49 µg/mL (≈ 75.6 µM)

Clc1ccc(/C=C/C2=CC(c3ccc(Cl)cc3)N3C=CSC3=N2)cc1 (centres undefined)
IC50 (DNA): 56.33 µg/mL (≈ 146 µM)

CC1=CN2C(=NC(/C=C/c3cccs3)=CC2c2cccs2)S1 (centres undefined)
IC50 (DNA): 76.15 µg/mL (≈ 222 µM)

COc1ccc(/C=C/C2=CC(c3ccc(OC)c(OC)c3)N3C=CSC3=N2)cc1OC (centres undefined)
inhibition of growth at 10 µM (NCI-H23): < 10%
inhibition of growth at 10 µM (HOP-92): < 10%
inhibition of growth at 10 µM (M14): < 10%
inhibition of growth at 10 µM (LOX IMVI): < 10%
inhibition of growth at 10 µM (KM12): < 10%
inhibition of growth at 10 µM (NCI-H522): < 10%
IC50 (DNA): 30.05 µg/mL (≈ 68.8 µM)
inhibition of growth at 10 µM (NCI-H322M): < 10%
inhibition of growth at 10 µM (SNB-19): < 10%
inhibition of growth at 10 µM (MDA-MB-231): < 10%
inhibition of growth at 10 µM (BT-549): < 10%
inhibition of growth at 10 µM (DU-145): < 10%
inhibition of growth at 10 µM (A549): < 10%
inhibition of growth at 10 µM (CAKI-1): < 10%
inhibition of growth at 10 µM (UACC-62): < 10%
inhibition of growth at 10 µM (NCI-H226): < 10%
inhibition of growth at 10 µM (SK-OV-3): < 10%
inhibition of growth at 10 µM (SNB-75): < 10%
inhibition of growth at 10 µM (NCI-H460): < 10%
inhibition of growth at 10 µM (NCI/ADR-RES): < 10%
inhibition of growth at 10 µM (Malme-3M): < 10%
inhibition of growth at 10 µM (MDA-MB-468): < 10%
inhibition of growth at 10 µM (ACHN): < 10%
inhibition of growth at 10 µM (SK-MEL-2): < 10%
inhibition of growth at 10 µM (COLO 205): < 10%
inhibition of growth at 10 µM (SF-295): < 10%
inhibition of growth at 10 µM (786-0): < 10%
inhibition of growth at 10 µM (A498): 25.6%
inhibition of growth at 10 µM (HCT-116): < 10%
inhibition of growth at 10 µM (HCT-15): < 10%
inhibition of growth at 10 µM (U-251): < 10%
inhibition of growth at 10 µM (RPMI-8226): < 10%
inhibition of growth at 10 µM (SK-MEL-5): < 10%
inhibition of growth at 10 µM (SW-620): < 10%
inhibition of growth at 10 µM (RXF 393): < 10%
inhibition of growth at 10 µM (OVCAR-8): < 10%
inhibition of growth at 10 µM (UACC-257): 12.8%
inhibition of growth at 10 µM (HOP-62): < 10%
inhibition of growth at 10 µM (CCRF-CEM): < 10%
inhibition of growth at 10 µM (SN12C): < 10%
inhibition of growth at 10 µM (OVCAR-4): < 10%
inhibition of growth at 10 µM (MCF7): < 10%
inhibition of growth at 10 µM (MOLT-4): < 10%
inhibition of growth at 10 µM (IGROV-1): < 10%
inhibition of growth at 10 µM (K562): < 10%
inhibition of growth at 10 µM (Hs-578T): < 10%
inhibition of growth at 10 µM (TK-10): < 10%
inhibition of growth at 10 µM (HT-29): < 10%
inhibition of growth at 10 µM (SR): 13.8%
inhibition of growth at 10 µM (SK-MEL-28): < 10%
inhibition of growth at 10 µM (SF-539): < 10%
inhibition of growth at 10 µM (HCC 2998): < 10%
inhibition of growth at 10 µM (HL-60(TB)): < 10%
inhibition of growth at 10 µM (UO-31): 11.3%
inhibition of growth at 10 µM (SF-268): < 10%
inhibition of growth at 10 µM (OVCAR-5): < 10%
inhibition of growth at 10 µM (MDA-MB-435): < 10%
inhibition of growth at 10 µM (T47D): < 10%

COc1cc(/C=C/C2=CC(c3cc(OC)c(OC)c(OC)c3)N3C=CSC3=N2)cc(OC)c1OC (centres undefined)
IC50 (DNA): 55.42 µg/mL (≈ 112 µM)

COc1ccc(/C=C/C2=CC(c3ccc(OC)cc3)N3C(C)=CSC3=N2)cc1 (centres undefined)
IC50 (DNA): 42.5 µg/mL (≈ 109 µM)
